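Results reflect a 48-hour exposure of cells in 96-well plates to compound at five concentrations. GI50 marks 50% less growth.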 Activity calls are given as the source filed them. Cut-off read from the data, not from the text of the source: active = GI50 up to about 1.1 µM and inactive = higher.
Experiments:
Assay in all cases: inhibition of tumour cell growth, NCI panel, 48 h
SNB-19 = tested on: SNB-19
SK-MEL-5 = tested on: SK-MEL-5
RPMI-8226 = tested on: RPMI-8226
TK-10 = tested on: TK-10
SW-620 = tested on: SW-620
HOP-62 = tested on: HOP-62
CCRF-CEM = tested on: CCRF-CEM
MCF7 = tested on: MCF7
UACC-257 = tested on: UACC-257
SNB-75 = tested on: SNB-75
LOX IMVI = tested on: LOX IMVI
NCI/ADR-RES = tested on: NCI/ADR-RES
T47D = tested on: T47D
M14 = tested on: M14
NCI-H522 = tested on: NCI-H522
EKVX = tested on: EKVX
A549 = tested on: A549
CAKI-1 = tested on: CAKI-1
OVCAR-5 = tested on: OVCAR-5
HOP-92 = tested on: HOP-92

SMILES	GI50 (SNB-19)	GI50 (SK-MEL-5)	GI50 (RPMI-8226)	GI50 (TK-10)	GI50 (SW-620)	GI50 (HOP-62)	GI50 (CCRF-CEM)	GI50 (MCF7)	GI50 (UACC-257)	GI50 (SNB-75)	GI50 (LOX IMVI)	GI50 (NCI/ADR-RES)	GI50 (T47D)	GI50 (M14)	GI50 (NCI-H522)	GI50 (EKVX)	GI50 (A549)	GI50 (CAKI-1)	GI50 (OVCAR-5)	GI50 (HOP-92)
N#Cc1nc(CCN2C(=O)c3ccccc3C2=O)oc1N	> 100 µM (inactive)	> 100 µM (inactive)	> 100 µM (inactive)	> 100 µM (inactive)	> 100 µM (inactive)	> 100 µM (inactive)	> 100 µM (inactive)	> 100 µM (inactive)	> 100 µM (inactive)	< 0.01 µM (active)	> 100 µM (inactive)	> 100 µM (inactive)	> 100 µM (inactive)	> 100 µM (inactive)	> 100 µM (inactive)	> 100 µM (inactive)	> 100 µM (inactive)	> 100 µM (inactive)	> 100 µM (inactive)	
CN(C)CCNC(=O)c1cccc2[nH]c(-c3ccccn3)nc12	42.2 µM (inactive)	21.7 µM (inactive)	21.7 µM (inactive)		24.9 µM (inactive)	35.3 µM (inactive)	23.5 µM (inactive)	31.5 µM (inactive)	28.6 µM (inactive)	21.2 µM (inactive)	32.5 µM (inactive)	26.1 µM (inactive)			25.6 µM (inactive)	41.4 µM (inactive)	36.2 µM (inactive)	21.5 µM (inactive)	38.2 µM (inactive)	19.6 µM (inactive)
CC1OC(OC2CC(O)(C(=O)CO)Cc3c(O)c4c(c(O)c32)C(=O)c2ccccc2C4=O)CC(N)C1O (stereo not given)	< 0.01 µM (active)	< 0.0105 µM (active)	< 0.01 µM (active)	0.0559 µM (active)	< 0.01 µM (active)	< 0.01 µM (active)	< 0.01 µM (active)		0.054 µM (active)	< 0.0137 µM (active)	< 0.01 µM (active)		< 0.01 µM (active)	< 0.015 µM (active)	< 0.0183 µM (active)	0.158 µM (active)	< 0.01 µM (active)	< 0.01 µM (active)	0.0242 µM (active)	< 0.0338 µM (active)
O=C(O)c1ccccc1Sc1ccc(C=C2NC(=S)N(c3ccccc3)C2=O)s1	> 100 µM (inactive)	> 100 µM (inactive)	41 µM (inactive)	76.2 µM (inactive)	> 100 µM (inactive)	> 100 µM (inactive)		> 100 µM (inactive)	> 100 µM (inactive)	> 100 µM (inactive)	> 100 µM (inactive)	> 100 µM (inactive)	77.6 µM (inactive)		21.4 µM (inactive)	97.3 µM (inactive)		44.4 µM (inactive)	> 100 µM (inactive)	
O=c1ccc2c(Cl)sc(Cl)c2[nH]1	> 100 µM (inactive)		> 100 µM (inactive)	> 100 µM (inactive)	> 100 µM (inactive)	> 100 µM (inactive)	> 100 µM (inactive)	> 100 µM (inactive)	> 100 µM (inactive)	> 100 µM (inactive)	> 100 µM (inactive)	> 100 µM (inactive)	> 100 µM (inactive)	> 100 µM (inactive)	92.9 µM (inactive)	98.4 µM (inactive)	> 100 µM (inactive)	> 100 µM (inactive)	> 100 µM (inactive)	
CC1Cc2c(Br)nc(N)nc2NC1=O (stereo not given)	> 100 µM (inactive)	> 100 µM (inactive)	> 100 µM (inactive)	> 100 µM (inactive)	> 100 µM (inactive)	> 100 µM (inactive)		> 100 µM (inactive)	> 100 µM (inactive)	> 100 µM (inactive)	> 100 µM (inactive)	> 100 µM (inactive)	> 100 µM (inactive)	> 100 µM (inactive)	> 100 µM (inactive)	> 100 µM (inactive)	> 100 µM (inactive)	> 100 µM (inactive)	> 100 µM (inactive)	
C=C(CCC=C(C)C)C1CC=C(C)CC1 (stereo not given)	> 100 µM (inactive)	16.6 µM (inactive)		38.5 µM (inactive)	22.9 µM (inactive)	16.3 µM (inactive)		19.8 µM (inactive)	> 100 µM (inactive)		5.48 µM (inactive)	35.6 µM (inactive)	28.1 µM (inactive)	62.4 µM (inactive)	16.4 µM (inactive)	29.2 µM (inactive)	19.5 µM (inactive)	19.7 µM (inactive)	> 100 µM (inactive)	
O=C1c2ccsc2-c2cccc3cccc1c23.O=C1c2sccc2-c2cccc3cccc1c23	2.93 µM (inactive)		0.0359 µM (active)	2.55 µM (inactive)	3.27 µM (inactive)	2.67 µM (inactive)	0.692 µM (active)	8.41 µM (inactive)	9.2 µM (inactive)	3.27 µM (inactive)	3.72 µM (inactive)	3.56 µM (inactive)	0.318 µM (active)	18.9 µM (inactive)	5.21 µM (inactive)	0.0132 µM (active)	3.32 µM (inactive)	2.26 µM (inactive)	1.71 µM (inactive)	
